Experimental data as given in PubChem BioAssay (NCI).
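GI50 is the concentration that inhibits growth by half. TGI: concentration producing complete growth inhibition.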

How the values were obtained:
Test in all cases: NCI tumour cell line growth inhibition, 384-well format
NCI-H23 lung = tested on: NCI-H23 lung
MDA-MB-435 melanoma = tested on: MDA-MB-435 melanoma
RXF 393 renal = tested on: RXF 393 renal
NCI-H460 NSCLC = tested on: NCI-H460 NSCLC
SK-OV-3 ovarian = tested on: SK-OV-3 ovarian
SNB-75 CNS = tested on: SNB-75 CNS
NCI/ADR-RES ovarian = tested on: NCI/ADR-RES ovarian
MOLT-4 leukemia = tested on: MOLT-4 leukemia
SK-MEL-5 melanoma = tested on: SK-MEL-5 melanoma
SF-295 CNS = tested on: SF-295 CNS
786-0 renal = tested on: 786-0 renal
UACC-257 melanoma = tested on: UACC-257 melanoma

Structure (SMILES) | GI50 (NCI-H23 lung) | TGI (NCI-H23 lung) | GI50 (MDA-MB-435 melanoma) | TGI (MDA-MB-435 melanoma) | GI50 (RXF 393 renal) | TGI (RXF 393 renal) | GI50 (NCI-H460 NSCLC) | TGI (NCI-H460 NSCLC) | GI50 (SK-OV-3 ovarian) | TGI (SK-OV-3 ovarian) | GI50 (SNB-75 CNS) | TGI (SNB-75 CNS) | GI50 (NCI/ADR-RES ovarian) | TGI (NCI/ADR-RES ovarian) | GI50 (MOLT-4 leukemia) | TGI (MOLT-4 leukemia) | GI50 (SK-MEL-5 melanoma) | TGI (SK-MEL-5 melanoma) | GI50 (SF-295 CNS) | TGI (SF-295 CNS) | also measured
COc1ccc2c(Oc3ccc(NC(=O)c4c(C)n(CC(C)(C)O)n(-c5ccccc5)c4=O)nc3)ccnc2c1 | 10.8 µM | > 100 µM | 12.3 µM | 53.7 µM | 2.42 µM | 9.27 µM | 14.3 µM | > 100 µM | 4.04 µM | > 100 µM | 7.61 µM | 53.1 µM | 25.7 µM | > 100 µM | 3.58 µM | 12.4 µM | 13.8 µM | > 100 µM | 13.9 µM | > 100 µM | GI50 (786-0 renal): 19.8 µM; TGI (786-0 renal): > 100 µM; GI50 (UACC-257 melanoma): 25.1 µM; TGI (UACC-257 melanoma): > 100 µM
Cn1cc(-c2ccc(-c3cncc(Cl)c3N3CCC4(CCNC4=O)CC3)cc2)cn1 | 22.5 µM | 59 µM | 30.1 µM | > 91.6 µM | 14.7 µM | > 96.1 µM | 21.1 µM | 62.2 µM | 34 µM | > 100 µM | 40 µM | > 95.9 µM | 22.1 µM | > 71.5 µM | 6.92 µM | 24.2 µM | 15.6 µM | 33.5 µM | 25.2 µM | > 87.2 µM | GI50 (786-0 renal): 11.8 µM; TGI (786-0 renal): > 92.2 µM; GI50 (UACC-257 melanoma): 35.6 µM; TGI (UACC-257 melanoma): > 71.3 µM
